What all share (format): in vivo, mice
One experiment deals with Influenza viruses. In words: Mouse-Survival Test (Test No. 1), Influenza virus strain not given. To be noted: unidentified influenza virus, 360 h; for response vs control in vivo at 500 mg/kg / response vs control in vivo at 5 mg/kg / response vs control in vivo at 50 mg/kg: read-out: Survival Index (S.I.); for responders at 500 mg/kg / responders at 5 mg/kg / responders at 50 mg/kg: read-out: Survival Percent.

The test system of experiment [1] is Influenza virus Jap 305. The following applies: 1 dose, 30 minutes before infection, 15 multiples of LD50.
Experiment [2] deals with Influenza virus Jap 305. Description: Mouse-Survival Test (Test No. 1), Influenza Jap 305. The following applies: for S.I.: significant if >1.24.
Where [3] appears, read: Jap 305, 50 mg/kg PO, virus dose 15 multiples of LD50.
[4] abbreviates: Jap 305, 500 mg/kg IP, virus dose 22 multiples of LD50.
Setting [5] is: Jap 305, 500 mg/kg PO, virus dose 15 multiples of LD50.

Where two headings read alike, the source gives them in different places.

Consider `Cc1[nH]nc(-c2ccncc2)c1-c1ccccc1O` [Compound B, 3-(4-pyridyl)-4-(2-hydroxyphenyl)-5-methylpyrazole], for which, in the experiment with Influenza viruses (ip), the response vs control in vivo at 500 mg/kg worked out at 129% and the responders at 500 mg/kg worked out at 0%.
On to `CCCc1[nH]nc(-c2ccncc2)c1-c1ccccc1O` [Compound C, 3-(4-pyridyl)-4-(2-hydroxyphenyl)-5-n-propyl-pyrazole], for which, in the experiment on Influenza viruses (ip), the response vs control in vivo at 500 mg/kg was 184% and the responders at 500 mg/kg came out at 50%.
Regarding `CC(C)c1[nH]nc(-c2ccncc2)c1-c1ccccc1O` [Compound D, 3-(4-pyridyl)-4-(2-hydroxyphenyl)-5-isopropylpyrazole], in the experiment with Influenza viruses (ip), the response vs control in vivo at 5 mg/kg came to 136%, the response vs control in vivo at 50 mg/kg was 131%, the response vs control in vivo at 500 mg/kg is 269% and the responders at 5 mg/kg was 0%. In the experiment with Influenza viruses (ip), the responders at 50 mg/kg amounted to 0% and the responders at 500 mg/kg came to 100%. For the same molecule, in the experiment with Influenza viruses (po), the response vs control in vivo at 50 mg/kg amounted to 167%, the response vs control in vivo at 500 mg/kg was 214%, the responders at 50 mg/kg was found to be 40% and the responders at 500 mg/kg amounted to 60%. In the experiment on Influenza virus Jap 305 [1] (intranasal 2.5% suspension), the “MDD (Mean Day of Death)” value is listed as 10.50 days, the S.I. is given as 1.49 and the “Survival Percent” value is recorded as 40%. Besides, in the experiment on Influenza virus Jap 305 [1] (intranasal 5% suspension), the “MDD (Mean Day of Death)” value turned out to be 9.76 days, the S.I. was 1.38 and the “Survival Percent” value is given as 30%. In the experiment with Influenza virus Jap 305 [1] (intranasal 10% suspension), the “MDD (Mean Day of Death)” value is 13.00 days, the S.I. worked out at 1.84 and the “Survival Percent” value was determined as 60%. Also, in the experiment on Influenza virus Jap 305 [2] (setting [3]), the “Survival Percent” value was determined as 30% and the S.I. is 1.31. Also, in the experiment on Influenza virus Jap 305 [2] (setting [4]), the “Survival Percent” value stood at 70% and the S.I. is given as 2.16. In the experiment on Influenza virus Jap 305 [2] (setting [5]), the “Survival Percent” value worked out at 100% and the S.I. came out at 2.12.
Regarding `CCCCc1[nH]nc(-c2ccncc2)c1-c1ccccc1O` [Compound E, 3-(4-pyridyl)-4-(2-hydroxyphenyl)-5-n-butylpyrazole], in the experiment on Influenza viruses (ip), the response vs control in vivo at 50 mg/kg is 130%, the response vs control in vivo at 500 mg/kg amounted to 162%, the responders at 50 mg/kg is 10% and the responders at 500 mg/kg was found to be 10%.
Regarding `COc1ccc(O)c(-c2c(-c3ccncc3)n[nH]c2C)c1` [Compound F, 3-(4-pyridyl)-4-(2-hydroxy-5-methoxy-phenyl)-5-methylpyrazole], in the experiment with Influenza viruses (ip), the response vs control in vivo at 500 mg/kg stood at 129% and the responders at 500 mg/kg worked out at 0%.
Take `CCc1nn(C)c(-c2ccncc2)c1-c1ccccc1O` [Compound G, 2-methyl-3-(4-pyridyl)-4-(2-hydroxyphenyl)-5-ethyl-pyrazole]: in the experiment on Influenza viruses (ip), the response vs control in vivo at 50 mg/kg worked out at 130%, the response vs control in vivo at 500 mg/kg is 217%, the responders at 50 mg/kg was determined as 0% and the responders at 500 mg/kg amounted to 60%.
In the same order, the values of `CCc1nn(C(C)C)c(-c2ccncc2)c1-c1ccccc1O` [Compound H, 2-isopropyl-3-(4-pyridyl)-4-(2-hydroxyphenyl)-5-ethylpyrazole] are 135%, 191%, 0% and 30%.
For `CCCCn1nc(CC)c(-c2ccccc2O)c1-c1ccncc1` [Compound I, 2-n-butyl-3-(4-pyridyl)-4-(2-hydroxyphenyl)-5-ethylpyrazole], in the experiment on Influenza viruses (ip), the response vs control in vivo at 5 mg/kg was determined as 132%, the response vs control in vivo at 50 mg/kg worked out at 148%, the response vs control in vivo at 500 mg/kg was 191% and the responders at 5 mg/kg is 0%. In the experiment with Influenza viruses (ip), the responders at 50 mg/kg turned out to be 0% and the responders at 500 mg/kg is 14%.

Source of the values: patent US4000281A, “Pyrazole derivatives” (priority 1971, dated 1976).
